Assay results taken from US7348421B1, “Methods for production of p-hydroxybenzoate in bacteria” (North Carolina State University, priority 2000, dated 2008).
Read-outs that look alike come from different tables or passages of the source.

How the values were obtained:
[1] = test system: Pseudomonas putida DOT-T1E; assay: Halo-inhibition test with antibiotic disks on minimal medium; type: cell-based; details: for size of the inhibition halo: strain T1E, 6-mm disks, µg per disk as, minimal medium; for tolerance/sensitivity to antibiotic: wild-type, Halo-inhibition test
PhoA5 pPAT7 = type: cell-based, Pseudomonas putida; details: for tolerance to aromatic carboxylic acids: PhoA5(pPAT7), double diffusion plates; for tolerance to amino acid / tolerance to paraben: PhoA5 pPAT7; for tolerance to amino acid: gradient 0 to 50 g/L; for tolerance to paraben: same gradients
[2] = test system: Pseudomonas putida DOT-T1E (wild-type); type: cell-based; details: for concentration that the strain tolerated: Wild-type, aromatic carboxylic acid gradient, 20 h at 30° C.; for tolerance to amino acid / tolerance to paraben: T1E; for tolerance to amino acid: gradient 0 to 50 g/L; for tolerance to paraben: gradient up to 2, 1.54, 0.8, 0.3 g/L for methyl-, ethyl-, propyl-, butylparaben
P. putida PhoA5 = type: cell-based, Pseudomonas putida; details: for concentration that the strain tolerated: aromatic carboxylic acid gradient, 20 h at 30° C.; for tolerance to amino acid: gradient 0 to 50 g/L; for tolerance to paraben: same gradients
T1E pPAT7 = type: cell-based, Pseudomonas putida; details: for tolerance to amino acid: gradient 0 to 50 g/L; for tolerance to paraben: same gradients
[3] = octanol-water; cited from earlier work
adapted strain = details: after 11 transfers; slow rate
PhoA5 mutant = details: 3 μg/mL EDDHA, M9 with glucose; overcome by adding Fe-citrate
[4] = test system: wild-type strain (DOT-T1E); details: 3 μg/mL EDDHA, M9 with glucose
toluene-tolerant strain = assay: Enrichment selection in flasks, toluene; type: cell-based; details: slow rate of growth
Protocol: Using a similar procedure with toluene, a toluene-tolerant strain (with a slow rate of growth on 150 ppm of toluene) was obtained. Adding 10 mM MgSO4 increased the tolerance of the organism to toluene.

DOT-T1E = type: cell-based, Pseudomonas putida; details: wild-type, 0.3% (vol/vol) toluene

CCn1cc(C(=O)O)c(=O)c2cc(F)c(N3CCNCC3)cc21 [NOR, norfloxacine]
size of the inhibition halo [1]: 20 mm | tolerance/sensitivity to antibiotic [1]: sensitive

p-methoxybenzoate
tolerance to aromatic carboxylic acids (PhoA5 pPAT7): as tolerant as the wild-type | concentration that the strain tolerated [2]: 19 g/L | concentration that the strain tolerated (P. putida PhoA5): 9.1 g/L

O=C(O)c1ccccc1Cl [o-chlorobenzoate]
tolerance to aromatic carboxylic acids (PhoA5 pPAT7): as tolerant as the wild-type | concentration that the strain tolerated [2]: 14.5 g/L | concentration that the strain tolerated (P. putida PhoA5): 6.0 g/L

Nc1ccc(C(=O)O)cc1 [p-aminobenzoate]
tolerance to aromatic carboxylic acids (PhoA5 pPAT7): as tolerant as the wild-type | concentration that the strain tolerated [2]: 13.0 g/L | concentration that the strain tolerated (P. putida PhoA5): 7.8 g/L

CO/N=C(\C(=O)N[C@@H]1C(=O)N2C(C(=O)O)=C(COC(C)=O)CS[C@H]12)c1csc(N)n1 [CTX, cefotaxime]
size of the inhibition halo [1]: 14 mm | tolerance/sensitivity to antibiotic [1]: sensitive

CCN1CCN(C(=O)N[C@@H](C(=O)N[C@@H]2C(=O)N3[C@@H]2SC(C)(C)[C@@H]3C(=O)O)c2ccccc2)C(=O)C1=O [PIP, piperacillin]
size of the inhibition halo [1]: 18 mm | tolerance/sensitivity to antibiotic [1]: equally sensitive

gentamycin [GM]
size of the inhibition halo [1]: 17 mm | tolerance/sensitivity to antibiotic [1]: equally sensitive

N[C@@H](Cc1c[nH]cn1)C(=O)O [Histidine, L-histidine]
tolerance to amino acid (PhoA5 pPAT7): 29.4 g/L | tolerance to amino acid [2]: 31.2 g/L | tolerance to amino acid ([2]; listed as histidine): ~31 g/L | tolerance to amino acid (T1E pPAT7): 30.6 g/L | tolerance to amino acid (P. putida PhoA5): 22.3 g/L | tolerance to amino acid (P. putida PhoA5; listed as histidine): about 23 g/L

Cc1ccc(C)cc1 [p-xylene]
log Pow [3]: 3.0

CCCc1ccccc1 [propylbenzene]
log Pow [3]: 3.6

CCCOC(=O)c1ccc(O)cc1 [PB, propylparabene]
tolerance to paraben (PhoA5 pPAT7): >0.8 g/L | tolerance to paraben [2]: >0.8 g/L | tolerance to paraben (T1E pPAT7): >0.8 g/L | tolerance to paraben (P. putida PhoA5): >0.8 g/L | tolerance to paraben (P. putida PhoA5; listed as propylparaben): at least 0.8 g/L

COc1cccc(C(=O)O)c1 [m-methoxybenzoate]
tolerance to aromatic carboxylic acids (PhoA5 pPAT7): as tolerant as the wild-type | concentration that the strain tolerated [2]: 12 g/L | concentration that the strain tolerated (P. putida PhoA5): 7.2 g/L

CC(=O)O [acetate]
acetate concentration at which the adapted strain was able to grow (adapted strain): 200 mM

CCCCCCCCO [1-octanol]
log Pow [3]: 2.8

O=C(O)C(NCCNC(C(=O)O)c1ccccc1O)c1ccccc1O (centres unmarked) [EDDHA, ethylenediamine-di (o-hydroxyphenylacetic acid)]
growth in the presence of iron chelator (PhoA5 mutant): severely inhibited | growth in the presence of iron chelator [4]: grew under all culture conditions

CN[C@H](CC(C)C)C(=O)N[C@H]1C(=O)N[C@@H](CC(N)=O)C(=O)N[C@H]2C(=O)N[C@H]3C(=O)N[C@H](C(=O)N[C@H](C(=O)O)c4cc(O)cc(O)c4-c4cc3ccc4O)[C@H](O)c3ccc(c(Cl)c3)Oc3cc2cc(c3O[C@@H]2O[C@H](CO)[C@@H](O)[C@H](O)[C@H]2O[C@H]2C[C@](C)(N)[C@H](O)[C@H](C)O2)Oc2ccc(cc2Cl)[C@H]1O [vancomycin]
tolerance/sensitivity to antibiotic [1]: tolerant

[H]/N=C(/N)N[C@H]1[C@H](O)[C@@H](O)[C@H](O[C@@H]2O[C@@H](C)[C@](O)(C=O)[C@H]2O[C@@H]2O[C@@H](CO)[C@H](O)[C@@H](O)[C@@H]2NC)[C@@H](N/C(N)=N\[H])[C@@H]1O [SM, streptomycin]
size of the inhibition halo [1]: 16 mm | tolerance/sensitivity to antibiotic [1]: equally sensitive

CCCCOC(=O)c1ccc(O)cc1 [BP, butylparabene]
tolerance to paraben (PhoA5 pPAT7): >0.3 g/L | tolerance to paraben [2]: >0.3 g/L | tolerance to paraben (T1E pPAT7): >0.3 g/L | tolerance to paraben (P. putida PhoA5): >0.3 g/L | tolerance to paraben (P. putida PhoA5; listed as butylparaben): ≥ 0.3 g/L

O=C(O)c1cccc(Cl)c1 [m-chlorobenzoate]
tolerance to aromatic carboxylic acids (PhoA5 pPAT7): as tolerant as the wild-type | concentration that the strain tolerated [2]: 4.5 g/L | concentration that the strain tolerated (P. putida PhoA5): 3.0 g/L

C1CCCCC1 [cyclohexane]
log Pow [3]: 3.2

O=C(O)c1cn(C2CC2)c2cc(N3CCNCC3)c(F)cc2c1=O [CIP, ciprofloxacine]
size of the inhibition halo [1]: 21 mm | tolerance/sensitivity to antibiotic [1]: sensitive

CCc1ccccc1 [ethylbenzene]
log Pow [3]: 3.1

Cc1ccccc1 [toluene]
toluene concentration at which the strain grew (toluene-tolerant strain): 150 ppm | survival of toluene shock (DOT-T1E; cells pre-exposed to toluene in the gas phase): tolerated the shock | loss of viability after sudden exposure to toluene (DOT-T1E; non-pre-exposed cells): 5 orders of magnitude

C[C@@H](O)[C@H]1C(=O)N2C(C(=O)O)=C(SCCN=CN)C[C@H]12 [IPM, imipenen]
size of the inhibition halo [1]: 26 mm | tolerance/sensitivity to antibiotic [1]: sensitive

CC[C@H]1OC(=O)[C@H](C)[C@@H](O[C@H]2C[C@@](C)(OC)[C@@H](O)[C@H](C)O2)[C@H](C)[C@@H](O[C@@H]2O[C@H](C)C[C@H](N(C)C)[C@H]2O)[C@](C)(O)C[C@@H](C)C(=O)[C@H](C)[C@@H](O)[C@]1(C)O [erythromycin]
tolerance/sensitivity to antibiotic [1]: tolerant

Cc1ccc(C(=O)O)cc1 [p-methylbenzoate]
tolerance to aromatic carboxylic acids (PhoA5 pPAT7): as tolerant as the wild-type | concentration that the strain tolerated [2]: 14.5 g/L | concentration that the strain tolerated (P. putida PhoA5): 7.4 g/L

CCn1cc(C(=O)O)c(=O)c2ccc(C)nc21 [NA, nalidixic acid]
size of the inhibition halo [1]: 15 mm | tolerance/sensitivity to antibiotic [1]: equally sensitive

Nc1ccccc1C(=O)O [o-aminobenzoate]
tolerance to aromatic carboxylic acids (PhoA5 pPAT7): as tolerant as the wild-type | concentration that the strain tolerated [2]: 8.7 g/L | concentration that the strain tolerated (P. putida PhoA5): 5.0 g/L

CN(C)[C@@H]1C(O)=C(C(N)=O)C(=O)[C@@]2(O)C(O)=C3C(=O)c4c(O)cccc4[C@@](C)(O)[C@H]3C[C@@H]12 [TE, tetracycline]
size of the inhibition halo [1]: 21 mm

CC1(C)S[C@@H]2[C@H](NC(=O)[C@H](N)c3ccccc3)C(=O)N2[C@H]1C(=O)O [ampicillin]
tolerance/sensitivity to antibiotic [1]: tolerant

N[C@@H](Cc1ccc(O)cc1)C(=O)O [Tyrosine, L-tyrosine]
tolerance to amino acid [2]: about 40 g/L | tolerance to amino acid (P. putida PhoA5): 25.3 g/L | tolerance to amino acid (P. putida PhoA5; listed as tyrosine): about 23 g/L

N[C@@H](Cc1c[nH]c2ccccc12)C(=O)O [Tryptophan, L-tryptophan]
tolerance to amino acid (PhoA5 pPAT7): 22.9 g/L | tolerance to amino acid (PhoA5 pPAT7; listed as tryptophan): more sensitive than the wild-type | tolerance to amino acid [2]: 35.3 g/L | tolerance to amino acid ([2]; listed as tryptophan): ~35 g/L | tolerance to amino acid (T1E pPAT7): 38.8 g/L | tolerance to amino acid (P. putida PhoA5): 23.5 g/L | tolerance to amino acid (P. putida PhoA5; listed as tryptophan): about 23 g/L

Nc1cccc(C(=O)O)c1 [m-aminobenzoate]
tolerance to aromatic carboxylic acids (PhoA5 pPAT7): as tolerant as the wild-type | concentration that the strain tolerated [2]: 14.8 g/L | concentration that the strain tolerated (P. putida PhoA5): 7.5 g/L

CCOC(=O)c1ccc(O)cc1 [EB, ethylparabene]
tolerance to paraben (PhoA5 pPAT7): 1.54 g/L | tolerance to paraben (PhoA5 pPAT7; listed as ethylparaben): as tolerant as the wild-type strain | tolerance to paraben [2]: >1.54 g/L | tolerance to paraben (P. putida PhoA5): ~1.4 g/L

COc1ccccc1C(=O)O [o-methoxybenzoate]
tolerance to aromatic carboxylic acids (PhoA5 pPAT7): as tolerant as the wild-type | concentration that the strain tolerated [2]: 17 g/L | concentration that the strain tolerated (P. putida PhoA5): 8.5 g/L

COC(=O)c1ccc(O)cc1 [MB, methylparabene]
tolerance to paraben (PhoA5 pPAT7): >2.0 g/L | tolerance to paraben (PhoA5 pPAT7; listed as methylparaben): as tolerant as the wild-type strain | tolerance to paraben [2]: >2 g/L | tolerance to paraben (T1E pPAT7): >2 g/L | tolerance to paraben (P. putida PhoA5): 1.0 g/L | tolerance to paraben (P. putida PhoA5; listed as methylparaben): about 1 g/L

CCCCCCC [heptane]
log Pow [3]: 4.5
